{"source": "patent US11324771B2", "about": "(priority 2020, dated 2022)", "origin": "cited, not measured here", "key": {"[1]": {"test": "not given", "remark": "listed apart in the source"}}, "note": "Read-outs that look alike come from different tables or passages of the source."}
{"substance": "cobinamide dihydroxide dihydrogen phosphate (ester), mono (inner salt), 3′-ester with 5,6-dimethyl-1-α-D-ribofuranosyl-1H-benzimidazole [Hydroxocobalamin]", "values": [{"measurement": "solubility in acetone", "setting": "acetone", "result": "practically insoluble"}, {"measurement": "solubility in benzene", "setting": "benzene", "result": "practically insoluble"}, {"measurement": "solubility in chloroform", "setting": "chloroform", "result": "practically insoluble"}, {"measurement": "solubility in dimethyl sulfoxide", "setting": "dimethyl sulfoxide", "result": "freely soluble"}, {"measurement": "solubility in diethyl ether / ether", "setting": "ether", "result": "practically insoluble"}, {"measurement": "solubility in ethyl acetate", "setting": "ethyl acetate", "result": "practically insoluble"}, {"measurement": "solubility in methanol", "setting": "methanol", "result": "freely soluble"}, {"measurement": "solubility in water", "setting": "water", "result": "freely soluble"}, {"measurement": "solubility in aqueous buffer", "setting": "[1]; pH 1.2", "result": "highly soluble"}, {"measurement": "solubility in aqueous buffer", "setting": "[1]; pH 4.5", "result": "highly soluble"}, {"measurement": "solubility in aqueous buffer", "setting": "[1]; pH 6.8", "result": "< 400", "unit": "µg/mL"}, {"measurement": "solubility in aqueous buffer", "setting": "[1]; pH 7.5", "result": "< 400", "unit": "µg/mL"}]}
